Laboratory results as given in US20250100961A1, “CHEMICAL ENTITIES FOR TREATING ACUTE MUSCULOSKELETAL PAIN, NON-SPECIFIC LOW-BACK PAIN, INFLAMMATORY ARTHRITIS RELATED DISEASES AND CONDITIONS, AND COMPOSITIONS AND METHODS THEREOF” (X-Cutag Therapeutics (Suzhou) Limited, priority 2023, published 2025).

How the values were obtained:
[1] = Co-administration of methocarbamol and CTG06-05 in rats, plasma time-concentration curves; type: in vivo, rat
Description: Differentiation in drug toxicity profiles. Methocarbamol and CTG06-05 were co-administered in rats and plasma samples were collected at various timepoints. […] This indicates a distinct toxicity profile for CTG06-05 compared to methocarbamol, particularly when the toxicity is driven by Cmax. Cmax is the maximum (or peak) plasma concentration that a drug achieves in a specified compartment or test area of the body after the drug has been administered.
Differentiation in drug distribution volumes. Concentration ratios of CTG06-05 to methocarbamol in rat plasma samples from the aforementioned experiment were determined. […] Drug distribution volume (Vd) is defined as the total amount of drug in the body divided by its concentration in plasma. Vd reflects the degree to which the drug is present in extravascular tissues rather than in the plasma. Therefore, when the total amount of drug is the same, for example, 1:1 co-administration, drug plasma concentration is a direct parameter in Vd comparison. In other words, the higher the concentration, the lower the Vd.

[2] = Co-incubation of methocarbamol and CTG06-05 in rat liver microsomes (1/1); type: in vitro ADME; conditions: co-incubated 1/1, FIG. 1
Description: Differentiation in drug elimination half-lives. […] The elimination half-life (T1/2) is the time it takes for the elimination processes to reduce the concentration level or the amount of drug in the system by 50%. Elimination half-life is a composite pharmacokinetic parameter determined by both clearance and volume of distribution (Vd). Elimination half-life is increased by an increase in volume of distribution or a decrease in clearance, and vice versa.
Preparation of Reaction Mixture: The microsome reaction mixtures were prepared as follows: for a total volume of 285 μL of reaction mixture, 274.5 μL of 1×PBS, 3 μL of the test compound, and 7.5 μL of 5 mg/mL microsomes were added. As a negative control, microsome-free samples were prepared by substituting the microsome solution in the reaction mixture with an equal volume of 1×Phosphate Buffer Solution (pH 7.4). The reaction mixture was prepared in triplicates. In addition, dextromethorphan was used in this assay as a positive control.
Incubation and Processing of Reaction: The reaction mixture was initiated by adding 10 μL of NADPH and incubated in a water bath at 37° C. […]
LC-MS/MS analysis: Reversed-phase liquid chromatographic separation was carried out using ACE 3 C18 column (50×2.1 mm id, 3 μm). […] Compounds were monitored in positive mode over a five-minute acquisition period using a triple quadrupole mass spectrometer. […]

[3] = IV co-administration of CTG06-05 and methocarbamol (1:1) to mice, plasma concentrations by LC-MS/MS; type: in vivo; conditions: mouse plasma, 1/1 co-administration, IV 0.5 mg/kg each, FIG. 2
Procedure: Example 2: Co-Administration of CTG06-05 and Methocarbamol (1:1) to Mice and LC-MS/MS Analysis of Mouse Plasma Samples
Mouse plasma samples were collected at intervals of 2, 7, 10, 15, 30, 45, and 60 minutes after an IV dose of CTG06-05 and methocarbamol at a 1:1 ratio (0.5 mg/kg each). Plasma samples were extracted via protein precipitation. The supernatant at each time point was transferred to a clean vial and analyzed by LC-MS/MS as described in Example 1.

[4] = Administration of CTG06-06 and methocarbamol to rats, LC-MS/MS of urine for parent drug and conjugates; type: in vivo; conditions: rat urine
Description: Differentiation in drug conjugation reactions. […] […] Conjugation is a phase II metabolism reaction in which an acid, for example, glucuronic acid, acts as a conjugating agent to link to a phase I metabolite covalently. The conjugate so formed would be excreted to urine. To most drugs, this is a necessary detoxicating process. As for methocarbamol, this could be a disadvantage because the acid directly forms a conjugate with the drug itself, not its metabolite, and thus, to reduce drug plasma concentration level immediately after administration. This is due to the presence of an OH group in the chemical structure of methocarbamol, which readily allows it to form conjugates with an acid. To inhibit this pathway, CTG06-06 was designed with the OH group replaced by a fluorine (F). This modification is anticipated to slow the drug elimination rate while maintaining a consistently high drug plasma concentration.
Example 3: Co-Administration of CTG06-06 and Methocarbamol (1:1) to Rats and LC-MS/MS Analysis of Rat Urine Samples
Rat urine samples were collected after an oral dose of CTG06-06 and methocarbamol at 1:1 ratio (0.5 mg/kg each).

[5] = oral; cited from earlier work
[6] = tested on: skeletal muscle contractility or motor nerve fiber; conditions: cited from earlier work
liver = conditions: in vivo; cited from earlier work

[2H]c1c([2H])c([2H])c(OC([2H])([2H])[2H])c(OCC(O)COC(N)=O)c1[2H] (stereo not drawn) [CTG06-05]
drug distribution volume (Vd) compared to methocarbamol ([1]; inferred from plasma concentrations after 1:1 co-administration): lower Vd value than methocarbamol | initial concentration in plasma compared to methocarbamol ([1]; rat plasma, co-administered, FIG. 2): lower than that of methocarbamol | concentration ratio of CTG06-05 to methocarbamol in plasma ([1]; rat plasma, co-administered, FIG. 3): increased with time | later concentration in plasma compared to methocarbamol ([1]; rat plasma, co-administered, later timepoints, FIG. 2): eventually exceeded that of methocarbamol | drug elimination half-life compared to methocarbamol [2]: longer drug elimination half-life compared to methocarbamol | C0 compared to methocarbamol [3]: lower C0 | T1/2 compared to methocarbamol [3]: longer T1/2

COc1ccccc1OCC(F)COC(N)=O (stereo not drawn) [CTG06-06]
drug conjugation reaction ([4]; separate administration (FIG. 4 legend)): eliminates the drug conjugation reaction in rats

COc1ccccc1OCC(O)COC(N)=O (stereo not drawn) [methocarbamol]
time to peak plasma concentration [5]: two | direct effect on skeletal muscle contractility or motor nerve fiber [6]: no direct effect | liver toxicity (liver): No liver toxicity is observed | conjugates of the drug in urine ([4]; co-administered, oral 0.5 mg/kg each, LC-MS/MS, FIG. 4): methocarbamol and its conjugates were detected
